PubChem BioAssay AID743417 (Broad Institute, 2014)
Records with an inconclusive call do not appear. Calls of active or inactive are those of the source.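 The calls were made as follows: active = compounds lowering the luciferase signal with a fitted half-maximal dose at most twice their top valid dose (cut at about 30 µM in these data); inconclusive = flat fits with moderate signal loss, or poor fits; inactive = the rest.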

The compounds below were run on Clone20 osteoblast Shn3 3'UTR firefly luciferase, 24 h (assay: Shn3 3'UTR reporter inhibitors, dose response, cell-based, Clone20 osteoblasts, luminescence, dry powder, set 2 (AID 743417)).

Row | Structure (SMILES) | AC50
1 | CN(Cc1ccc(OC(F)F)cc1)C(=O)c1cccc(S(=O)(=O)N2CCN(c3ccccc3)CC2)c1 | 2.59 µM
2 | CCC(=O)N1CCN(c2ccc(NC(=O)c3ccc([N+](=O)[O-])o3)cc2Cl)CC1 | 0.85 µM
3 | COc1ccc(OC)c(C(c2nnnn2Cc2ccccc2)N2CCN(C3CCCCC3)CC2)c1 (configuration not stated) | > 70 µM (inactive)
4 | CC(C)C(=O)N1CCN(c2ccc(NC(=O)c3ccc([N+](=O)[O-])o3)cc2Cl)CC1 | 0.954 µM
5 | Clc1cc2cccnc2c2ncccc12 | 4.06 µM
6 | Nc1nonc1C(=O)NCCNCc1cc(Br)ccc1OCc1ccc(F)cc1 | 3.74 µM
7 | CCCC(=O)N1CCN(c2ccc(NC(=O)c3ccc([N+](=O)[O-])o3)cc2Cl)CC1 | 0.7 µM
8 | O=C1C=CC(=O)N1CCNc1ncc(C(F)(F)F)cc1Cl | 0.947 µM
9 | O=C(CN1C(=O)c2ccccc2S1(=O)=O)c1ccc(Cl)cc1Cl | 3.53 µM
10 | CC1=CC2/C=C(\C)CCC(O)C(O)/C=C/C(=O)C23C(=O)NC(CC(C)C)C3C1C (configuration not stated) | 5.29 µM
11 | O=C(Nc1ccc([N+](=O)[O-])cc1Cl)c1cc(Cl)ccc1O | 3 µM
12 | COc1ccc(CC2NCC(O)C2OC(C)=O)cc1 (configuration not stated) | < 0.26 µM
13 | CC(C)(C)c1ccc(-n2ncc3c2CCCC3NC(=O)C2(C(N)=O)CC2)cc1 (configuration not stated) | 0.589 µM
14 | C=C1CC2(CC(c3ccccc3)OC(c3ccccc3)C2)OC1=O (configuration not stated) | 2.49 µM
15 | CC(C)CCNc1nc(N)c([N+](=O)[O-])c(N2CCCCCC2)n1 | 8.79 µM
16 | COc1ccc(CNCC(O)COc2cccc3c2OC(C)(C)C3)cc1 (configuration not stated) | 1.68 µM
17 | CCc1nnc(NC(=O)c2cccc(C(=O)Nc3nnc(CC)s3)n2)s1 | 1.45 µM
18 | CCCCCCCSc1cc(OC)c(CCNC)cc1OC | 10.6 µM
19 | Cc1ccc(S(=O)(=O)NCc2ccc(C(=O)N3CCN(c4ccc([N+](=O)[O-])cc4)CC3)cc2)cc1 | 3.79 µM
20 | CCCC(=O)OCCNc1cc(Sc2nc3ccccc3[nH]2)c2nonc2c1[N+](=O)[O-] | 6.63 µM
21 | CCOc1ccc(N(C)S(=O)(=O)c2cc(-c3cc(C)no3)ccc2C(C)C)cc1 | 4.13 µM
22 | Cc1ccc(NC(=O)c2cc3ccccc3oc2=O)cc1S(=O)(=O)N(C)C | 1.29 µM

Row | Structure (SMILES) | AC50
23 | CCN1C(=O)C(=Cc2cccc(OC)c2Oc2ccc([N+](=O)[O-])cc2[N+](=O)[O-])SC1=S | 1.89 µM
24 | FC(F)(F)c1nc(-c2cccs2)ncc1-c1nnnn1-c1ccc(Cl)cc1 | 2.1 µM
25 | CN1/C(=C/C(=O)c2nc(S(C)(=O)=O)ncc2Cl)C(C)(C)c2ccccc21 | 5.21 µM
26 | Cc1ccc2nnn(Cc3cccc(C(C)(C)C)c3O)c2c1 | 5.44 µM
27 | CN1/C(=C\C(=O)CN2C(=O)NC3(CCCCCC3)C2=O)C(C)(C)c2ccccc21 | 2.66 µM
28 | Cc1ccc(NC(=O)c2nc(S(=O)(=O)Cc3ccccc3)ncc2Cl)cc1 | 3.42 µM
29 | COc1ccc(-c2cc3nc(C)n(N)c(=O)c3s2)cc1 | 1.13 µM
30 | CC(C)NS(=O)(=O)c1ccc(CCC(=O)Nc2cc(Cl)ccc2Oc2ccccc2)cc1 | 7.65 µM
31 | O=C(Nc1cccc(C(F)(F)F)c1)c1sc(Cl)nc1C(F)(F)F | 9.06 µM
32 | COc1ccc(OC)c(NC(=O)CN(Cc2ccc(F)cc2)C2CCCCC2)c1 | 4.99 µM
33 | O=S(=O)(Nc1cccc2ncccc12)c1cccs1 | 4.3 µM
34 | O=C(Nc1ccc(Cc2ccncc2)cc1)c1ccc([N+](=O)[O-])o1 | 2.71 µM
35 | Cc1cc(C(=O)COc2cccnc2[N+](=O)[O-])c(C)n1-c1ccccc1 | 34.8 µM
36 | Cc1ccc(S(=O)(=O)NCc2ccncc2)cc1C | 0.585 µM
37 | CCOc1ccc(OCc2cccc(C(=O)O)c2)cc1 | 0.649 µM
38 | CCCC(=O)NC(c1cccs1)c1cc(Cl)c2cccnc2c1O (configuration not stated) | 3.16 µM
39 | COc1ccc(C(NC(C)=O)c2ccc3cccnc3c2O)c(OC)c1 (configuration not stated) | 1.74 µM
40 | COc1cc(OC)c(OC)cc1/C=C1\CC(C)C/C(=C\c2cc(OC)c(OC)cc2OC)C1=O (configuration not stated) | 3.22 µM
41 | Nc1nnc(SCC(=O)Nc2ccc(N3CCOCC3)cc2)s1 | 16.8 µM
42 | CC(C)(C)C(=O)Cn1ncc(Br)c(Br)c1=O | 9.51 µM
43 | CC1Sc2ccc(S(=O)(=O)N3CCC(C(=O)Nc4ccc(Cl)cc4)CC3)cc2NC1=O (configuration not stated) | 2.42 µM
44 | CC1(C)CC2CC(C)(CN2c2ncnc3ccc(Br)cc23)C1 (configuration not stated) | 2.11 µM

Row | Structure (SMILES) | AC50
45 | O=C(Cc1ccc(Cl)cc1)Nc1ccc(N2CCN(C(=O)c3ccco3)CC2)cc1 | > 70 µM (inactive)
46 | CC(C)[C@H](NC(=O)OC(C)(C)C)c1nnc(S(=O)(=O)Cc2c(F)cccc2Cl)o1 | 1.08 µM
47 | CCOC(=O)C1CCCN(C(=O)Cn2sc3nc(C)cc(C)c3c2=O)C1 (configuration not stated) | 12.5 µM
48 | Cc1cc2nc(C)n(CCCNC(=O)Nc3cccc4ccccc34)c2cc1C | 3.19 µM
49 | COc1ccccc1NC(=O)Cn1cc(C(=O)C2CC2)c2ccccc21 | 4.76 µM
50 | Cc1ccc(-n2ncc3c2CCCC3NC(=O)c2ocnc2C)cc1C (configuration not stated) | 1.29 µM
51 | Cc1ccccc1OCCOC(=O)c1cc(S(=O)(=O)N2CCCCC2)ccc1N1CCOCC1 | 3.79 µM
52 | Cc1csc(NC(=O)Cc2nn(C)c(=O)c3ccccc23)n1 | 6.82 µM
53 | Cc1cccc(C)c1NC(=O)CN(C)C(=O)c1cccc(S(=O)(=O)N2CCN(c3ccc(F)cc3)CC2)c1 | 2.2 µM
54 | Cc1ccccc1CS(=O)(=O)c1ncc(Cl)c(C(=O)Nc2ccc(F)cc2)n1 | 3 µM
55 | CC[C@@H](C(=O)[C@@H](C)[C@@H](O)[C@H](C)CCc1ccc(C)c(O)c1C(=O)O)[C@H]1O[C@](CC)([C@H]2CC[C@](O)(CC)[C@H](C)O2)C[C@@H]1C | 7.93 µM
56 | O=[N+]([O-])c1cc(S(=O)(=O)C(F)(F)F)ccc1Sc1nc2ccccc2s1 | 2.45 µM
57 | Cn1nnnc1Sc1ncnc2scc(-c3ccc(Br)cc3)c12 | 0.334 µM
58 | COC(=O)/C=C/S(=O)(=O)c1ccc(NC(C)=O)cc1 | 7.3 µM
59 | NS(=O)(=O)c1ccc(CCNc2nn3c(-c4cccc(OC(F)(F)F)c4)cnc3s2)cc1 | 3.93 µM
60 | CCc1ccc(NC(=O)c2nc(S(=O)(=O)Cc3ccccc3)ncc2Cl)cc1 | 0.551 µM
61 | CCCCCCN1C[C@@H](n2cc(-c3ccc(F)cc3)nn2)[C@H](O)C[C@@H]1c1ccc(Cl)cc1 | 12.5 µM
62 | Cc1ccc2nc(-c3ccc(O)c(O)c3)cn2c1 | 4.2 µM
63 | Oc1c(C(c2ccccc2Cl)N2CCCC2)ccc2cccnc12 (configuration not stated) | 5.77 µM
64 | Cc1cc(C)c(CN2CCN(C(=O)Cn3cnc4c(NCc5ccccc5)ncnc43)CC2)c(C)c1 | 0.417 µM
65 | O=c1c2ccccc2nc(/C=C/c2ccc([N+](=O)[O-])o2)n1-c1ccc(O)cc1 | 3.24 µM
66 | C=C1CC(Cn2cc(Br)c(=O)[nH]c2=O)(c2ccc(-c3ccccc3)cc2)OC1=O (configuration not stated) | 2.67 µM

Row | Structure (SMILES) | AC50
67 | Cc1ccc(NC(=O)c2nc(S(=O)(=O)Cc3ccccc3C)ncc2Cl)cc1C | 0.486 µM
68 | CN(CCOc1ccc(Cl)cc1)C(=O)c1cccc(S(=O)(=O)N2CCN(Cc3ccccc3)CC2)c1 | 2.29 µM
69 | Cn1nc(-c2ccc(OCC(=O)N3CCN(Cc4ccccc4)CC3)cc2)c2ccccc2c1=O | 2.1 µM
70 | Oc1ccc(CCNc2ncnc3ccc(Cl)cc23)cc1 | 0.551 µM
71 | CN(CCO)c1cc(Sc2nc3ccccc3s2)c2nonc2c1[N+](=O)[O-] | 1.55 µM
72 | CN(Cc1ccc(OC(F)F)cc1)C(=O)c1cccc(S(=O)(=O)N2CCN(Cc3ccccc3)CC2)c1 | 2.37 µM
73 | CCOc1ccccc1NC(=O)c1nc(S(=O)(=O)Cc2ccccc2)ncc1Cl | 0.376 µM
74 | COC(=O)C1=C(c2ccc(OCc3ccccc3)cc2)C[C@@H]2CC[C@H]1N2C(=O)NCc1ccc(C(C)(C)C)cc1 | 6.84 µM
75 | NC(=O)c1cc(N2C(=O)C=CC2=O)ccc1Cl | 11.3 µM
76 | COc1ccc(C(C(=O)NC2CCCCC2)N(C(=O)CCl)c2ccc(OC)cc2)cc1 (configuration not stated) | 5.56 µM
77 | Cc1ccc(NC(=O)c2cc(S(=O)(=O)NCCC3=CCCCC3)ccc2F)cc1F | 4.13 µM
78 | CCc1ccc(OCC(=O)NC(NC(=S)Nc2ccc(Cl)cc2)C(Cl)(Cl)Cl)cc1 (configuration not stated) | 4.96 µM
79 | COC(=O)C1=C(c2ccc(OCc3ccccc3)cc2)C[C@@H]2CC[C@H]1N2C(=O)NCCCCc1ccccc1 | 2.8 µM
80 | c1csc(CCNc2ncnc3sc4c(c23)CCC4)c1 | 1.7 µM
81 | CC(C)(C)NCC(=Cc1ccccc1)C(=O)c1ccccc1 | 4.51 µM
82 | CC(NNC(=S)N1CCN(c2ccccn2)CC1)c1nccc2ccccc12 (configuration not stated) | < 0.26 µM
83 | Cc1cc(Br)c(S(=O)(=O)NCc2ccncc2)cc1C | 1.41 µM
84 | Oc1ccccc1C(Nc1nccs1)c1ccc2cccnc2c1O (configuration not stated) | 1.13 µM
85 | COc1ccc2c(c1)sc1nc(-c3ccccc3)cn12 | 7.37 µM
86 | CCCCn1c(CN2CCN(c3ccc(F)cc3)CC2)nc2c1c(=O)n(C)c(=O)n2C | 2.73 µM
87 | c1ccc(-c2ccc(-c3nc(-c4ccccn4)no3)cc2)cc1 | 3.75 µM
88 | N#Cc1cc(-c2ccccc2)[nH]c1-c1nccc2ccccc12 | 3.42 µM

Row | Structure (SMILES) | AC50
89 | O=C(NCCc1ccccc1)c1ccc2c(c1)OCCO2 | 2.16 µM
90 | CCCOc1ccccc1C1CC(=O)Nc2cc3c(cc21)OCO3 (configuration not stated) | 5.72 µM
91 | COc1ccc(-c2nc(NC(=O)C3CC(=O)N(c4ccc5c(c4)OCCO5)C3)sc2C)cc1 (configuration not stated) | 5.24 µM
92 | O=C(Nc1nc(-c2ccccn2)cs1)c1ccc(F)c(S(=O)(=O)N2CCOCC2)c1 | 1.32 µM
93 | C[C@H]1C[C@@H](C)C(=O)[C@@H]([C@H](O)CC2CC(=O)NC(=O)C2)C1 | 0.307 µM
94 | CCCCNc1cc(C)nc(NCc2ccccc2)n1 | 0.719 µM
95 | c1ccc(CN2CCN(c3ncnc4c3[nH]c3ccccc34)CC2)cc1 | 2.06 µM
96 | Cc1c(C(=O)Nc2cccc(C(F)(F)F)c2)oc2ccc(S(=O)(=O)N3CCOCC3)cc12 | 3.8 µM
97 | CNS(=O)(=O)c1cccc(C(=O)OCc2cc(C(C)=O)ccc2OC)c1 | 11.2 µM
98 | Nc1ncnc2c1c(-c1ccc(Oc3ccccc3)cc1)cn2C1CCCC1 | 0.658 µM
99 | C[C@H]1CCC/C=C/[C@@H]2C[C@H](O)C[C@H]2[C@@H](O)/C=C/C(=O)O1 | 2.17 µM
100 | Cc1ccc(S(=O)(=O)N2CCN(c3ncnc4sccc34)CC2)cc1C | 3.53 µM
101 | O=C(Nc1ccc2nc3n(c(=O)c2c1)CCCCC3)c1cc([N+](=O)[O-])ccc1F | 14.1 µM
102 | Cc1ccc(CNC(=O)c2cc3c(C)nc4ccccc4c3o2)cc1 | 2.49 µM
103 | CC(=O)Nc1ccc(Sc2ccc([N+](=O)[O-])o2)cc1 | 2.15 µM
104 | Cc1cc(Cl)c(S(=O)(=O)N2CCSCC2)cc1OCC(=O)NC1CCCCC1 | 4.11 µM
105 | O=C(c1cccc(S(=O)(=O)N2CCN(c3ccc(F)cc3)CC2)c1)N1CCCC(C(F)(F)F)C1 (configuration not stated) | 0.942 µM
106 | O=C(Cn1cc(C(=O)c2ccco2)c2ccccc21)Nc1ccccc1F | 2.6 µM
107 | Clc1ccc(-c2cc(-c3nnc4n3CCCCC4)c3ccccc3n2)cc1 | 5.59 µM
